Data on three compounds can be found in PMC2096555 (Purinergic Signalling, 2005).

For one experiment, the system named is mouse NTPDase2. Particulars: read-out: Reported Km mouse NTPDase2; ATP; no reference given; cited from earlier work.
The test system of the next experiment is recombinant rat NTPDase1. Particulars: read-out: Reported Km recombinant rat NTPDase1; ATP; cited from earlier work.
Experiment [1] concerns the target T1, rat NTPDase1 (Rattus norvegicus, UniProt P97687).
T1 sequence (P97687 1-511): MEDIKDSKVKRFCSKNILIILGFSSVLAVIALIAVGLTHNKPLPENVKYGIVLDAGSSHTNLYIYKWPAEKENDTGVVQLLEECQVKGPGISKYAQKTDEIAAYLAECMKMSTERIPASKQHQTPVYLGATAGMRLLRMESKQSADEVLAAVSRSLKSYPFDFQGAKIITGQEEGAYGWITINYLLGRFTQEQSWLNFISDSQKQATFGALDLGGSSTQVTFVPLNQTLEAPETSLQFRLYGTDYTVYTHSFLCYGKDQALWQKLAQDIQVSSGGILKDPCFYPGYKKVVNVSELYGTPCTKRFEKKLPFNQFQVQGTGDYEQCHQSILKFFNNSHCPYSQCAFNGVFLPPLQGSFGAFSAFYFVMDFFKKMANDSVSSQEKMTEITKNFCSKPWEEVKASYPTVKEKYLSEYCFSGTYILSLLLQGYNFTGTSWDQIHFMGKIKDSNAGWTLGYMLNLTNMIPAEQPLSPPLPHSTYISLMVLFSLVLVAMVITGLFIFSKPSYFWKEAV
Format: biochemical.

The target of experiment [2] is T2, rat NTPDase3 (Rattus norvegicus, UniProt A6I415).
T2 sequence (A6I415 1-529): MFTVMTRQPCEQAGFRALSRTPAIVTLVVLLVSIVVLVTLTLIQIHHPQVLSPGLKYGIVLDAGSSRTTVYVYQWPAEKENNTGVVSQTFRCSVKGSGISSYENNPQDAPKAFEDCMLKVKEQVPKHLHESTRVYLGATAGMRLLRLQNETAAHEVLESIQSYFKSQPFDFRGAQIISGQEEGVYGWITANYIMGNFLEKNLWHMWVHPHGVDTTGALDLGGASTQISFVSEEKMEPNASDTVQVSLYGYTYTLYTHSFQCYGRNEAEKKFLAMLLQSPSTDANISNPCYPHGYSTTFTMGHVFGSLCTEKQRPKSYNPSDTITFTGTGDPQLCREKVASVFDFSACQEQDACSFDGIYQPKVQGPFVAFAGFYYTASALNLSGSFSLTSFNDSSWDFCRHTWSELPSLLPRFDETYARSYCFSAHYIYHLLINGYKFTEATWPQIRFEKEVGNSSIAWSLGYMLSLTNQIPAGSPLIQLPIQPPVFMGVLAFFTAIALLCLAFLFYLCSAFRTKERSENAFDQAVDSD
Format: biochemical.

A further experiment has as its system human NTPDase3. Particulars: read-out: Reported Km human NTPDase3; ATP; respectively ref 32, 40; cited from earlier work.
For another experiment, the system named is mouse NTPDase3. Particulars: read-out: Reported Km mouse NTPDase3; ATP; cited from earlier work.
The test system of a further experiment is mouse NTPDase1. Particulars: read-out: Reported Km mouse NTPDase1; ATP; cited from earlier work.
Experiment [3] addresses T3, rat NTPDase2 (Rattus norvegicus, UniProt O35795).
T3 sequence (O35795 1-495): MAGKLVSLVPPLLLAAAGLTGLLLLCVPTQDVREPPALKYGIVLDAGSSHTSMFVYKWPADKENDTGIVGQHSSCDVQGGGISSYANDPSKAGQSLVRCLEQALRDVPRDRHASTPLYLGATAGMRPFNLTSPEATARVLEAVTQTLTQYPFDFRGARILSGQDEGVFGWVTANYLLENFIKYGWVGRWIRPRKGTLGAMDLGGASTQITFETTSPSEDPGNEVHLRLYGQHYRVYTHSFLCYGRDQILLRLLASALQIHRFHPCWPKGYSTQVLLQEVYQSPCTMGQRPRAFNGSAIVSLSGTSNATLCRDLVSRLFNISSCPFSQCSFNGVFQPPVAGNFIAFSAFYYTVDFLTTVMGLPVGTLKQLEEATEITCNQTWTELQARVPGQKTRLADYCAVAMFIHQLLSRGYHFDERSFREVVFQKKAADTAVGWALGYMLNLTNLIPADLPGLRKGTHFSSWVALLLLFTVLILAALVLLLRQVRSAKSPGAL
Format: biochemical.

In a further experiment the test system is human NTPDase1. Particulars: read-out: Reported Km human NTPDase1; ATP; cited from earlier work.
The subject of experiment [4] is rat superior cervical ganglionic cells. Particulars: at 10 µM concentration; cited from earlier work.
The target of experiment [5] is T2, rat NTPDase3. Type of experiment: biochemical. The source holds these as a separate data set.
Experiment [6] addresses T3, rat NTPDase2. Format: biochemical. This is another data set of the same source.
The target in experiment [7] is T1, rat NTPDase1. Type of experiment: biochemical. This is another data set of the same source.
The mark [8] stands for this setting: substrate ATP, membrane preparation.

“And” between values parts separate entries of the source, which are not always exact repeats. Identical values can stand only once. Some results are limits rather than exact numbers.

Consider `Nc1ncnc2c1ncn2[C@@H]1O[C@H](COP(=O)(O)OP(=O)(O)OP(=O)(O)O)[C@@H](O)[C@H]1O` [ATP], for which the Km was 37 µM with mouse NTPDase2; 75 µM in the experiment with recombinant rat NTPDase1; 76 ± 12 µM on rat NTPDase1 [1] (read-out: Km ± SEM NTPDase1, substrate ATP 10-1000 µM, product AMP); 311 ± 4 µM at rat NTPDase3 [2] (read-out: Km ± SEM NTPDase3, substrate ATP 25-1000 µM, product ADP); 75 µM and 128 µM in the experiment with human NTPDase3; 11 µM in the experiment on mouse NTPDase3. Besides, the Km in the experiment with mouse NTPDase1 is 12 µM; on rat NTPDase2 [3] (read-out: Km ± SEM NTPDase2, substrate ATP 25-1000 µM, product ADP), 203 ± 8 µM; in the experiment on human NTPDase1 it was 17 µM. In addition, at rat NTPDase1 [1] (setting [8]), the “Vmax ± SEM NTPDase1” value was 0.023 ± 0.002 μmol/min/mg protein. Further, the “Vmax ± SEM NTPDase3” value on rat NTPDase3 [2] (setting [8]) was found to be 0.010 ± 0.001 μmol/min/mg protein. Further, the “Vmax ± SEM NTPDase2” value on rat NTPDase2 [3] (setting [8]) is given as 0.021 ± 0.002 μmol/min/mg protein.

For `OCCN(CCO)c1nc(N2CCCCC2)c2nc(N(CCO)CCO)nc(N3CCCCC3)c2n1` [Dipyridamole, dipyridamole], the “inhibition of ATP hydrolysis” value in experiment [4] is recorded as “effective inhibitor”. Besides, the Ki on rat NTPDase3 [5], at rat NTPDase2 [6] and at rat NTPDase1 [7] was more than 1000 µM throughout.

Turning to `Cc1ccc(C(=O)Nc2ccc(S(=O)(=O)O)c3cc(S(=O)(=O)O)cc(S(=O)(=O)O)c23)cc1NC(=O)c1cccc(NC(=O)Nc2cccc(C(=O)Nc3cc(C(=O)Nc4ccc(S(=O)(=O)O)c5cc(S(=O)(=O)O)cc(S(=O)(=O)O)c45)ccc3C)c2)c1` [Suramin, suramin], the “Ki for NTPDase1 relative to NTPDase2” value at rat NTPDase1 [7] (ratio of Ki values) was “five fold higher”.
